From US10442758B2, “Zinc or Copper (II) salt and use thereof as a biocide” (LABORATORIYA BIO ZET, LLC, priority 2013, dated 2019)

Tests used:
Type in all cases: cell-based
fungal spores = assay: Fungicidal activity according to GOST 30028.4-2006: resistance of treated material samples to fungal spores
[1] = system: E. coli No. 906, S. aureus No. 1257, P. aeruginosa, methicillin-resistant strain S. aureus; assay: Bactericidal activity, summary over the investigated strains
Protocol: (§1) The determination is performed on E. coli No. 906 and S. aureus No. 1257 test strains being usually used to study the bactericidal activity of biocides as well as on clinical strains—P. aeruginosa and methicillin-resistant strain S. aureus—at salt concentrations from 0.5 to 2% and time of exposure from 5 to 60 min.
(§2) The same method as described in Example 9 is used to determine the bactericidal activity of ZMA against three of four strains studied in Example 9.

[2] = system: P. aeruginosa (clinical strain); assay: Bactericidal activity: bacterial culture exposed in salt solution, neutralized, inoculated on solid nutrient medium; conditions: for Bactericidal activity: growth of P. aeruginosa: 1.0 % wt., CFU in 1 ml
Protocol: as §1, §2

E. coli No. 906 = assay: as above; conditions: time of exposure 30 min, concentration from 1.0 to 2.5%
Protocol: as §1, §2

S. aureus No. 1257 = assay: as above; conditions: for Bactericidal activity: growth of S. aureus test strain: CFU in 1 ml
Protocol: The determination is performed on E. coli No. 906 and S. aureus No. […]
as §2

[3] = test material polyvinyl chloride emulsion, additive content 0.5 % wt.
[4] = test material paper impregnated with latex SKS 65 GP, additive content 0.5 % wt.
[5] = test material paper impregnated with petrolatum base, additive content 4.7 % wt.

C=CC(=O)[O-].O=C([O-])c1ccccc1.[Zn+2] [Zinc acrylate-benzoate]
Tolerance time (fungal spores; [3]): 11 days

C=C(C)C(=O)[O-].CC(=O)[O-].[Zn+2] [ZMA, zinc methacrylate-acetate]
bactericidal activity compared with the proposed salts ([1]; comparison of Table 3 with Table 2): substantially lower than that of the proposed salts
Bactericidal activity: growth of P. aeruginosa ([2]; exposure 30 min): >300 CFU
bactericidal activity (in words) against P. aeruginosa ([2]; only at concentration from 2.5%): not completely stable bactericidal activity
bactericidal activity (in words) against E. coli No. 906 (E. coli No. 906): stable bactericidal activity
Tolerance time (fungal spores; [4]): 12 days
Tolerance time (fungal spores; [5]): 16 days
Tolerance time (fungal spores; test material polyvinyl chloride emulsion, additive content 5 % wt.): 22 days
Bactericidal activity: growth of S. aureus test strain (S. aureus No. 1257; 2.5 % wt., exposure 30 min): >300 CFU
Bactericidal activity: growth of S. aureus test strain (S. aureus No. 1257; 5 % wt., exposure 5 min): >300 CFU
bactericidal activity (in words) against S. aureus No. 1257 (S. aureus No. 1257; only at concentration of 2.5% and time of exposure of 60 min): sub-bactericidal activity

Zinc methacrylate-sulfosalicylate
bactericidal effect (in words) ([1]; concentration 1.0%, time of exposure from 30 min): stable bactericidal effect against three of four investigated strains
Bactericidal activity: growth of P. aeruginosa ([2]; exposure 5 min): 1 CFU
Tolerance time (fungal spores; [4]): 16 days
Tolerance time (fungal spores; [5]): 20 days
Tolerance time (fungal spores; [3]): 16 days
Bactericidal activity: growth of S. aureus test strain (S. aureus No. 1257; 1.0 % wt., exposure 15 min): >300 CFU
